Measured values reported in patent US20250205256A1 (GH RESEARCH IRELAND LIMITED, priority 2022, published 2025).

Test: Pharmacokinetics after single inhaled dose of 5-MeO-DMT (LC-MS/MS)
Type: in vivo, human
Parameters: blood concentration relative to LLOQ: dose or concentration left out as unconfirmed
Details: metabolite after inhaled 5-MeO-DMT
Description: Blood samples were obtained at 1; 2; 4; 7; 10; 15; 20; 30; 45 min and 1; 1.5; 2; 3; 4 hours after administration.
PK parameters were generated by algebraic analysis of the concentration versus time plots for each individual. The analysis was carried out using the software Phoenix WinNonlin 6.3.

Structure (SMILES): CN(C)CCc1c[nH]c2ccc(O)cc12 [bufotenine]
- blood concentration observations with uptitration scheme: Substantially similar observations
- blood concentration relative to LLOQ: Only in few samples, concentrations were above the lower level of quantification
